{
  "source": "paper PMC9503459",
  "about": "“Antifungal Activity, Structural Stability, and Immunomodulatory Effects on Human Immune Cells of Defensin from the Lentil Lens culinaris” (Membranes, 2022)",
  "test_system": "pro-inflammatory macrophages (Mφ1) from THP-1 cells",
  "assay": "Cytokine response by multiplex xMAP, pro-inflammatory macrophages",
  "assay_type": "cell-based, human",
  "conditions": "Mφ1 macrophages (THP-1), 2 µM, 24 h",
  "method": "Colorectal adenocarcinoma Caco-2 cell line (ATCC HTB-37) was cultured in complete DMEM/F12 (1:1) medium containing 10% fetal bovine serum (FBS, Gibco) and 1X antibiotic-antimycotic solution (1XAAS, Invitrogen, Waltham, MA, USA). The acute monocytic leukemia THP-1 line (ATCC TIB-202) was cultured in complete RPMI-1640 medium, containing 10% FBS, 1XAAS, and […]. THP-1 cells were differentiated into pro-inflammatory macrophages (Mφ1) with phorbol 12-myristate 13-acetate (Sigma-Aldrich) for 24 h and subsequently polarized with lipopolysaccharide from E. coli (Sigma-Aldrich) and rhIFN-γ (Sigma-Aldrich) for another 48 h according to previously reported protocol. All cells were cultured in a humidified CO2 incubator (5% CO2, 37 °C). Primary peripheral blood mononuclear cells (PBMCs) collected from a healthy donor were purchased from American Type Culture Collection (ATCC PCS-800-011). CD4^+ T-helper and CD8^+ T cytotoxic cells were isolated from PBMCs by magnetic separation with mouse anti-human CD4-PE (clone 13B8.2, Beckman Coulter Diagnostics, Pasadena, CA, USA) and CD8-PE (clone REA734, Miltenyi Biotec, Bergisch Gladbach, Germany), Anti-PE MicroBeads (Miltenyi Biotec), and LS Separation Columns (Miltenyi Biotec). Isolated CD4^+ and CD8^+ cells were expanded separately with Dynabeads™ Human T-Expander CD3/CD28 (Gibco, Waltham, MA, USA) in RPMI-1640 supplemented with 10% FBS, 1XAAS and 100 U/mL rh-IL-2 (Gibco). Regulatory CD4^+ FoxP3^+ T cells (Tregs) were isolated from PBMCs by magnetic separation with CD4^+CD25^+ Regulatory T Cell Isolation Kit, human (Miltenyi Biotec). Primary CD14^+ blood monocytes were isolated from PBMCs by adherence according to standard technique. Monocyte-derived mature dendritic cells (moDCs) were obtained from CD14^+ blood monocytes according to the previously reported protocol. Briefly, blood monocytes were incubated in complete RPMI-1640 medium, containing 10% FBS, 1XAAS, 800 U/mL rhGM-CSF (Sci-Store, Russia, Moscow) and 500 U/mL rhIL-4 (Sci-Store) for 3 days. Fresh complete RPMI-1640 medium with rhGM-CSF and rhIL-4 was added to the culture on day 3. On day 5, fresh complete RPMI-1640 containing 100 U/mL rhTNF-α (Sigma) as well as 800 U/mL rhGM-CSF and 500 U/mL rhIL-4 was added and the culture was incubated for another 4 days until full maturation.\nCaco-2 cells were seeded into the wells of a 48-well plate, coated with 0.1% bovine collagen (Sigma-Aldrich) for 24 h, 3 weeks before the experiment with complete DMEM/F12 (1:1) medium renewal every 2–3 days. Monocytes, moDCs, CD4^+ T-helper and CD8^+ T cytotoxic cells, Mφ1, and Regulatory CD4^+ FoxP3^+ T cells were seeded into the wells of 48-well plates in the complete RPMI-1640 medium supplemented with 10% Human AB serum (HABS, Capricorn Scientific, Ebsdorfergrund, Germany) and 1XAAS 24 h prior to the experiment; medium in Caco-2-containing wells was also replaced with the same medium. After 24 h, half of the medium in each well was replaced by fresh complete RPMI-1640 medium with 10% HABS, supplemented with 4 µM of Lc-def for the sample wells or fresh medium alone for the control wells. Cell cultures were kept in CO2-incubator (5% CO2, 37 °C) for another 24 h. Culture supernatants were collected 24 h later and stored at −70 °C degrees less than one month prior to the analytes assessment. […]",
  "note": "Where “and” joins values, the source holds several entries; their conditions need not be identical. Equal entries are not always repeated. No end group written: not given here.",
  "data": [
    {"substance": "Lc-def: defensin from lentil Lens culinaris seeds (UniProt:B3F051), recombinant, overexpressed in Escherichia coli (KTCENLSDSFKGPCIPDGNCNKHCKEKEHLLSGRCRDDFRCWCTRNC; disulfide (positions not given here); ends not checked; also: disulfide bonds present, pairing not given here; UniProt B3F051 28-74, looked up)", "values": [
      {"measurement": "EGF", "result": 2.32, "unit": "pg/mL"},
      {"measurement": "Eotaxin", "result": "<3.23↓ pg/ml"},
      {"measurement": "FGF-2", "result": 16.21, "unit": "pg/mL"},
      {"measurement": "FLT-3L", "result": 2.27, "unit": "pg/mL"},
      {"measurement": "Fractalkine", "result": "<23.19↓ pg/ml"},
      {"measurement": "G-CSF", "result": 1150, "unit": "pg/mL"},
      {"measurement": "GM-CSF", "result": 74.32, "unit": "pg/mL"},
      {"measurement": "GROa", "result": 545.96, "unit": "pg/mL"},
      {"measurement": "IFNa2", "result": 7.77, "unit": "pg/mL"},
      {"measurement": "IFNg", "result": "<1.99↓ pg/ml"},
      {"measurement": "IL-1RA", "result": 101.1, "unit": "pg/mL"},
      {"measurement": "IL-1a", "result": 38.93, "unit": "pg/mL"},
      {"measurement": "IL-1b", "result": 471.74, "unit": "pg/mL"},
      {"measurement": "IL-2", "result": "<0.31↓ pg/ml"},
      {"measurement": "IL-3", "result": "<0.48↓ pg/ml"},
      {"measurement": "IL-4", "result": 0.92, "unit": "pg/mL"},
      {"measurement": "IL-5", "result": "<0.24↓ pg/ml"},
      {"measurement": "IL-6", "result": 1022, "unit": "pg/mL"},
      {"measurement": "IL-7", "result": "<0.33↓ pg/ml"},
      {"measurement": "IL-8", "result": ">17785↑ pg/ml"},
      {"measurement": "IL-9", "result": "<1.05↓ pg/ml"},
      {"measurement": "IL-10", "result": 41.17, "unit": "pg/mL"},
      {"measurement": "IL-12 (p40)", "result": "<3.02↓ pg/ml"},
      {"measurement": "IL-12 (p70)", "result": 4.54, "unit": "pg/mL"},
      {"measurement": "IL-13", "result": 15.11, "unit": "pg/mL"},
      {"measurement": "IL-15", "result": "<1.45↓ pg/ml"},
      {"measurement": "IL-17A", "result": "<1.55↓ pg/ml"},
      {"measurement": "IL-17E/IL-25", "result": "<20.59↓ pg/ml"},
      {"measurement": "IL-17F", "result": "<16.96↓ pg/ml"},
      {"measurement": "IL-18", "result": 6.51, "unit": "pg/mL"},
      {"measurement": "IL-22", "result": 28.78, "unit": "pg/mL"},
      {"measurement": "IL-27", "result": 40.89, "unit": "pg/mL"},
      {"measurement": "IP-10", "result": "<1.56↓ pg/ml"},
      {"measurement": "M-GSF", "result": "<23.75↓ pg/ml"},
      {"measurement": "MCP-1", "result": "259 pg/mL and 259.04 pg/mL"},
      {"measurement": "MCP-3", "result": 8.66, "unit": "pg/mL"},
      {"measurement": "MDC", "result": "<0.35↓ pg/ml"},
      {"measurement": "MIG", "result": "124 pg/mL and 124.97 pg/mL"},
      {"measurement": "MIP-1a", "result": 2680, "unit": "pg/mL"},
      {"measurement": "MIP-1b", "result": "413 pg/mL and 413.11 pg/mL"},
      {"measurement": "PDGF-AA", "result": 4181, "unit": "pg/mL"},
      {"measurement": "PDGF-AB/BB", "result": "<9.75↓ pg/ml"},
      {"measurement": "RANTES", "result": 23.61, "unit": "pg/mL"},
      {"measurement": "TGF-a", "result": 0.89, "unit": "pg/mL"},
      {"measurement": "TNFa", "result": 1942, "unit": "pg/mL"},
      {"measurement": "TNFb", "result": 1.95, "unit": "pg/mL"},
      {"measurement": "VEGFa", "result": 48.67, "unit": "pg/mL"},
      {"measurement": "sCD40L", "result": 14.8, "unit": "pg/mL"}
    ]}
  ]
}
